Assay results taken from patent US11957766B2, “HNQO1-activatable fluorescent probe for imaging cancer cells in-vitro and in-vivo” (Texas Tech University System, priority 2019, dated 2024).

Tests used:
[1] = tested on: DAOY, T98G, and U87MG cells; assay: Fluorescence microscopy of NQ-DCP in hNQO1 positive cancer cells; type: cell-based, human
Protocol: Visualization of Cancer Cells by Fluorescence Imaging of hNQO1. […] The cytotoxicity of NQ-DCP was initially evaluated in cultured brain tumor (DAOY, T98G, and U87MG) and normal (astrocytes) cells to assess its biocompatibility using the resazurin reduction assay. […] Cells were incubated with NQ-DCP (10 μM) for 60 min, washed with PBS and were imaged under a fluorescence microscope.
Cell Culture, Fluorescence Imaging, and Flow Cytometry Analysis. Brain tumor cells and astrocytes were grown in Dulbecco's modified Eagle's (DMEM) medium containing 10% Fetal Bovine Serum and 1% penicillin/streptomycin in a humidified atmosphere of 5% CO2 at 37° C. For fluorescence imaging, initially, cells were seeded into 6-well plate and cultured overnight in respective media at 37° C. Media was replaced with fresh medium containing 10 μM NQ-DCP and incubated at 37° C. for 60 min and then the medium was replaced with PBS and live cells were imaged using a fluorescence microscope. For inhibitor study, cells were pretreated with NQO1 inhibitor ES936 (100 nM) for 6 h before adding the NQ-DCP. For determining endogenous hNQO1 activity in cancer cells using flow cytometry, about 10×10^4 cells were incubated with 10 μM of NQ-DCP for 60 min and were analyzed using flow cytometry.

hNQO1 in T98G cells = assay: siRNA knockdown of NQO1 and NQ-DCP activation; type: cell-based, human; details: compared with a siRNA control, 10 μM probe
Protocol: Evaluation of Specificity in Cancer Cells. To show the substrate selectivity of NQ-DCP for hNQO1, T98G cells were pretreated with 100 nM of NQO1 inhibitor ES936 for 6 h and incubated 10 μM of NQ-DCP.
Knockdown of NQO1 by Small Interfering RNA (siRNA). NQO1 siRNA (a pool of 3 target-specific 19-25 nt siRNAs, Santa Cruz Biotechnology, Inc., (Dallas, TX, USA) and scrambled siRNAs were introduced into cells using the X-tremeGENE siRNA transfection reagent (Roche, Basel, Switzerland) according to the manufacturer's instructions with 80 pmol of NQO1 siRNA and 10 μl of transfection reagent per well of a six-well plate for T98G cells.

NQO1 = NQO1 (Homo sapiens, UniProt P15559); assay: HPLC analysis of NQO1 catalyzed conversion of NIR-ASM; type: biochemical; set-up: purchased Sigma-Aldrich D1515; details: after 30 min of incubation
Description: Design, preparation, and characterization of the NIR-ASM fluorescent probe. Imaging agents emitting near-infrared fluorescence enable deeper penetration with low phototoxicity and high signal-to-background ratios due to minimal tissue auto-fluorescence, which is a prime requirement for in vivo imaging studies.^40,41 Accordingly, the inventors designed an NQO1 activatable near-infrared fluorescent probe (NIR-ASM) by attaching a trimethyl-lock QPA with (E)-2-(3-(4-aminostyryl)-5,5-dimethylcyclohex-2-en-1-ylidene)malononitrile (ASM) for molecular imaging of cancer cells in vivo (FIG. 9A). The fluorophore ASM was used in this study because of its strong NIR fluorescence signal with substantial Stokes shift (˜190 nm), to eliminate background interferences by avoiding reabsorption of emitted photons. […] NQO1 is a ubiquitous cytosolic two-electron reductase that catalyzes the reduction of quinone substrates in the presence of NADH. Upon interaction with NQO1 in the presence of NADH, QPA present in non-fluorescent NIR-ASM undergoes two-electron reduction to form an o-hydroxydihydrocinnamic acid derivative that undergoes rapid lactonization under physiological conditions to yield dihydrocoumarin, 6-hydroxy-4,4,5,7,8-pentamethylchroman-2-one (HPC) along with highly fluorescent ASM. […]

[2] = tested on: A549 and NCI-H460 cancer cells, IMR 90 and HUVECs normal cells; assay: Cytotoxicity of NIR-ASM, resazurin reduction assay; type: cell-based, human; details: up to 100 μM, 72 h
Protocol: Assessment of NIR-ASM biocompatibility. Inspired by the excellent photophysical properties of NIR-ASM in monitoring the NQO1 activity in vitro, the inventors determined the biocompatibility of NIR-ASM both in vitro and in vivo before using for endogenous applications. […] Further, to evaluate NIR-ASM tolerability and toxicity in vivo, CD1 mice were grouped for the administration of vehicle (PEG:H2O:EtOH) alone or 5 mg/kg of NIR-ASM five times a week for five weeks. The average mouse weights were monitored as a surrogate marker to the toxicity.
Cell viability assays. NIR-ASM was evaluated for in vitro cytotoxicity in human cancer (A549 and H460) and normal (IMR90 and HUVECs) cell lines following a protocol of 72 h continuous drug exposure using resazurin reduction assay. The cell lines were grown in 96-well microtiter plates at a density of 5000 cells per well. The plates were incubated for 24 h prior to addition of NIR-ASM. Ten concentrations of NIR-ASM were evaluated in quadruplicate sets. Plates were incubated for a further 72 h and replaced with 20 μL resazurin 0.01% (w/v) containing the medium. After 2 h, the fluorescence was measured using a Tecan Reader (Infinite m200 Pro) at a 544 nm excitation and 590 nm emission.

Sequence of NQO1 (P15559 whole entry): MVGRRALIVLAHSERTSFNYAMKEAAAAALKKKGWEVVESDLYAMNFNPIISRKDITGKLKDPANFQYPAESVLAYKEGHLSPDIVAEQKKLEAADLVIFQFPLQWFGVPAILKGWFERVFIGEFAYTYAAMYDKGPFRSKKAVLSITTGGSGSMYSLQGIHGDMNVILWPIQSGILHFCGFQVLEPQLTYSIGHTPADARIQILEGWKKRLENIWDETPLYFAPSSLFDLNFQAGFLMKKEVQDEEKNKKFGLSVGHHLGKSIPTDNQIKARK

Row | Structure (SMILES) | fluorescence signal in cancer cells ([1]; 10 μM, 60 min) | cell permeability ([1]; inferred from intracellular activation) | decrease in fluorescence after siRNA silencing of the hNQO1 gene (hNQO1 in T98G cells) | conversion into ASM by NQO1 (HPLC) (NQO1) | cytotoxicity [2]
1 | CC1=C(C)C(=O)C(C(C)(C)CC(=O)Oc2ccc(/C=C/C3=CC(=C(C#N)C#N)CC(C)(C)C3)cc2)=C(C)C1=O [NQ-DCP] | bright fluorescence signals | good cell permeability | 90-95% |  | 
2 | CC1=C(C)C(=O)C(C(C)(C)CC(=O)Nc2ccc(/C=C/C3=CC(=C(C#N)C#N)CC(C)(C)C3)cc2)=C(C)C1=O [NIR-ASM, (E)-N-(4-(2-(3-(dicyanomethylene)-5,5-dimethylcyclohex-1-en-1-yl)vinyl)phenyl)-3-methyl-3-(2,4,5-trimethyl-3,6-dioxocyclohexa-1,4-dien-1-yl)butanamide] |  |  |  | nearly completely converted into ASM | not toxic
